Assay: in vitro
Conditions: human, hela cells, % viability

| SMILES | viability at 28.5 h, 10 µM [%] |
| --- | --- |
| O=C(O)c1cccc(N2C(=O)C3C4C=CC(C3C2=O)C2C(=O)N(c3cccc(C(=O)O)c3)C(=O)C42)c1 (centres unmarked) [CBK261495] | 110 |
| CC(=O)NCCNC(=O)c1cc(Br)c[nH]1 [CBK297767] | 88.3 |
| CC1=CC(C)C(C(=O)O)C(C(=O)N2CCN(C)CC2)C1 (centres unmarked) [CBK027311G] | 97.7 |
| Cc1ccc(NC(=O)C2CCCN2S(=O)(=O)c2ccc(F)cc2)cc1F (centres unmarked) [CBK110164] | 91.6 |
| Cc1nc2c(c(C)c1CC(=O)NCc1cccc(C#N)c1)c(=O)[nH]n2C [CBK304959] | 92.4 |
| NC(=O)CN1C(=O)CO[C@H]2CN(Cc3cnc4ccccc4c3)C[C@H]21 [CBK289242] | 106 |
| Cn1cnc([N+](=O)[O-])c1Oc1ccccc1OCc1ccccc1 [CBK002747] | 91.7 |
| CN(C(=O)C1CCN(C(=S)NCc2ccccc2)CC1)C(c1ccccc1)c1ccccn1 (centres unmarked) [CBK060476] | 91.7 |
| O=C(CNC(=O)OCc1ccccc1)NCC(CCCN1CCN(c2ccccc2)CC1)(c1ccccc1)c1ccccc1 [CBK002293] | 125 |
| O=C(Cn1ccc2ccnc(-c3cccs3)c21)N1CCOCC1 [CBK284729] | 94.2 |
| O=C(O)c1cccc(NCC(=O)c2ccccc2)c1 [CBK287163] | 88.8 |
| CSc1cccc(NC(=O)N2CCN(C(=O)C3CCCO3)CC2)c1 (centres unmarked) [CBK043283] | 100 |
| CC(C)Nc1nc2cc(Cl)c(Cl)cc2nc1OCc1cccnc1 [CBK115743] | 97.4 |
| Cc1ccc(Cl)cc1NC(=O)CCn1cnc2ccccc2c1=O [CBK270103] | 95.1 |
| COc1ccc(-c2cc(C(=O)N3CCC(S(C)(=O)=O)C3)cnc2-c2ccccc2)cn1 (centres unmarked) [CBK036706] | 99.7 |
| CC1=CC(C)C(C(=O)O)C(C(=O)Nc2ccccc2)C1 (centres unmarked) [CBK286851] | 90.4 |
| CCCC/C=C/c1cncc(N2CCN(C(=O)c3ccco3)CC2)n1 [CBK037918] | 91.3 |
| COc1ccc(C(=O)Nc2ccc(S(=O)(=O)N3CCN(C)CC3)cc2)cc1[N+](=O)[O-] [CBK268140] | 97 |
| CCN1CCC[C@@H]1CNc1cc(NS(=O)(=O)c2cccs2)cc2ccoc12 [CBK067904C] | 83.3 |
| Cc1cc(C)n(C(C)CNC(=O)c2cc(C3CC3)on2)n1 (centres unmarked) [CBK283243] | 103 |
| CCc1c(C(=O)NCc2cc(C3CC3)[nH]n2)[nH]c2ccc(F)cc12 [CBK282501] | 76.3 |
| O=C(C1=Cc2ccccc2OC1)N1CCC(c2ccncc2)CC1 [CBK282339] | 104 |

| SMILES | viability at 28.5 h, 10 µM [%] |
| --- | --- |
| CC(C)c1cc(C(=O)NC2CCN(c3ncccc3C#N)CC2)n(C)n1 [CBK306975] | 87.1 |
| O=C(Cc1csc(-c2ccc(F)cc2)n1)Nc1ccc(F)cc1 [CBK295177] | 82.3 |
| Cc1c(S(=O)(=O)NC(C)CCCC(C)(C)O)sc2ccc(Cl)cc12 (centres unmarked) [CBK062467] | 93.5 |
| O=C(NC1CC(=O)N(CC(F)(F)F)C1)c1cnc(-c2ccncc2)s1 (centres unmarked) [CBK305546] | 78 |
| CC(C)(C)c1ccc(O)c(NC(=S)NC(=O)c2ccccc2I)c1 [CBK264399] | 114 |
| COc1cc(CN(C)CCc2ccccn2)c([N+](=O)[O-])cc1OC [CBK261737G] | 88.3 |
| COc1ccccc1-c1nccnc1OC(c1ccccc1)c1ccccc1 [CBK106813] | 93.8 |
| Cc1cccc(-c2ccc(CC3(C(=O)NC(C)C)CCN(C(=O)C(C)(C)C)CC3)cc2)c1 [CBK285758] | 96.2 |
| Cc1ncccc1-c1cc2cccnc2n1CCCNC(=O)C1CC1C (centres unmarked) [CBK282688] | 101 |
| O=C(NCCCN1CCOCC1)/C(=N\O)c1ccccn1 [CBK288366] | 94.1 |
| CC(C)Oc1ccc(C(=O)C2=C(O)C(=O)N(CCN(C)C)C2c2ccncc2)cc1 (centres unmarked) [CBK264907] | 90.3 |
| CC(=O)N1CCC(C(=O)NCCc2cccc(C)c2)C1 (centres unmarked) [CBK281952] | 110 |
| O=[N+]([O-])c1ccc(N2CCN(S(=O)(=O)c3ccc4ccccc4c3)CC2)cc1 [CBK157773] | 93.6 |
| NS(=O)(=O)c1ccc(NC(=O)CCC(=O)O)cc1 [CBK261350] | 86.9 |
| COc1ccccc1-c1nccnc1NCc1ccc(OC(F)(F)F)cc1 [CBK036761] | 96 |
| Cc1cc(C)c(-n2cccn2)c(CN2CCC(CO)C2)c1 (centres unmarked) [CBK282915] | 87.1 |
| O=C(c1ccco1)N1CCN(c2cncc(-c3cccs3)n2)CC1 [CBK065518] | 114 |
| CN(CCCn1c(=S)[nH]c2ccccc2c1=O)C1CCCCC1 [CBK296642] | 103 |
| Cc1cccc(=O)n1CCCn1cc(C2CCOC2)nn1 (centres unmarked) [CBK307368] | 100 |
| CCN(CC)S(=O)(=O)c1ccc(Nc2nc3ccc(Cl)cc3n3cnnc23)cc1 [CBK268259] | 87.6 |
| Cc1csc(C(Cc2cccs2)NC(=O)CN(C)C)n1 (centres unmarked) [CBK285124] | 97.9 |
| COC(=O)[C@@H](C)NC(=O)[C@H]1CN(C(=O)Nc2ccccc2)CCN1C(=O)NC(C)C [CBK289631] | 113 |

| SMILES | viability at 28.5 h, 10 µM [%] |
| --- | --- |
| O=C1NCCNC(=O)C2(C/C=C/COc3ccccc31)CCCN(C(=O)c1cnco1)C2 (centres unmarked) [CBK291993] | 106 |
| FC(F)(F)c1cnc(N2CCNCC2)c(Cl)c1 [CBK013400] | 92.9 |
| Brc1ccc(OCCCCCCN2CCCCC2)cc1 [CBK261784] | 97 |
| CCOC(=O)c1c(NC(=O)/C=C/C(=O)O)sc2c1CCCCC2 [CBK265299] | 91.5 |
| Cn1nc(C(C)(C)C)cc1C(=O)N1CCNC(=O)C1Cc1ccccc1-c1ccc(F)cc1 (centres unmarked) [CBK285830] | 101 |
| Cc1ccc(-c2cc(C(=O)NCCCn3ccnc3)no2)cc1 [CBK268200] | 102 |
| CN(C)CC(C)(C)CNC(=O)c1cc(-c2ccc(Cl)cc2)on1 [CBK116561] | 101 |
| O=C(CN1CCCC1c1ccc(Nc2ccc(F)cn2)cn1)Nc1ccc(F)cc1 (centres unmarked) [CBK285941] | 106 |
| O=S(=O)(NCc1cccnc1)c1ccc(Cl)c2ccccc12 [CBK264008] | 89.5 |
| CN(C)c1ccc(-n2ncc(-c3ccsc3)n2)cc1 [CBK112845] | 86.8 |
| OC1(c2cccnc2F)CCN(Cc2cc(F)ccc2F)CC1 [CBK284371] | 83.6 |
| O=C(Cc1ccccc1[N+](=O)[O-])NNC(=S)Nc1ccc(F)c(Cl)c1 [CBK266904] | 101 |
| O=[N+]([O-])c1ccc(O)c(/C=N/c2ccc3cc4ccc(/N=C/c5cc([N+](=O)[O-])ccc5O)cc4nc3c2)c1 [CBK261557] | 57.4 |
| CC(O)CNc1nccnc1-c1ccccc1 (centres unmarked) [CBK089257] | 95.7 |
| O=C(c1ccccn1)N(CCc1ccccc1)c1nc2ccccc2s1 [CBK295151] | 97.5 |
| CCCSc1nc2c(c(=O)[nH]1)C(c1ccncc1)C1=C(CCCC1=O)N2 (centres unmarked) [CBK287606] | 106 |
| CC1(C)CC(N(Cc2c[nH]cn2)Cc2ccccc2F)CC(C)(C)N1 [CBK282579] | 92.9 |
| Cn1ccnc1CN1CCNC(=O)C1c1ccccc1C(F)(F)F (centres unmarked) [CBK306415] | 85.1 |
| C=CCSc1nc(-c2ccc(OCCC)cc2)n[nH]1 [CBK267323] | 100 |
| CCOC(=O)CCCCNC(O)C(Cl)(Cl)Cl (centres unmarked) [CBK261003C] | 106 |
| Cc1ccc(CN(Cc2nccn2C)C2CC(C)(C)NC(C)(C)C2)o1 [CBK283190] | 112 |
| COCCCn1c(=O)[nH]c2ncc(-c3cccc(C(=O)NCCO)c3)nc21 [CBK065042] | 118 |

| SMILES | viability at 28.5 h, 10 µM [%] |
| --- | --- |
| Cc1ccc(C(=O)O)cc1S(=O)(=O)Nc1ccc(-c2cn3ccsc3n2)cc1 [CBK296688] | 85.2 |
| NS(=O)(=O)c1ccc(C(=O)NCCc2c[nH]c3ccc(Cl)cc23)cc1 [CBK159780] | 95.2 |
| O=C(NC(Cc1cccs1)c1nccs1)C1CSCN1 (centres unmarked) [CBK284805] | 91.4 |
| COCCNc1cc(-c2ccc(C(C)=O)s2)ncn1 [CBK090791] | 115 |
| Cc1cc(OCCC#N)cc(C)c1Cl [CBK015872] | 98.2 |
| O=C(COc1cccc2ccccc12)NNC(=O)C1CCCO1 (centres unmarked) [CBK263007] | 89.7 |
| COc1ccc([C@@]23CC[C@@H](NC(=O)Nc4cccc5nsnc45)C[C@@H]2N(C)CC3)cc1OC [CBK038874T] | 86.8 |
| O=C1C=C(N2CCC(CCC3CCN(C4=CC(=O)CCC4)CC3)CC2)CCC1 [CBK007126] | 105 |
| Cc1ccc(NC(=O)CC(C(=O)O)N(C)C)cc1 (centres unmarked) [CBK267068] | 81.7 |
| CC(NC(=O)c1c(Cl)c(Cl)c(Cl)c(Cl)c1C(=O)O)c1cccs1 (centres unmarked) [CBK264722] | 107 |
| COCCn1cnnc1C(C)NC(=O)Cn1cc2ccccc2n1 (centres unmarked) [CBK307047] | 92.1 |
| N#Cc1cccc(C(=O)N2CCCN(Cc3ccc(Cl)cc3)CC2)c1 [CBK305323] | 95.9 |
| Cc1ccc(S(N)(=O)=O)cc1NC(=O)c1ccco1 [CBK004204] | 93.7 |
| CC(NC1=NC(C)(C)Cc2ccccc21)C(=O)O (centres unmarked) [CBK262575] | 89 |
| CC(=O)NCCCCCC(=O)N1CCN(c2ccc(C(F)(F)F)cc2)CC1 [CBK091312] | 92.8 |
| Cc1ccc(C)c2c1c1nc3ccccc3nc1n2Cc1nnc(-c2ccccc2)o1 [CBK268677] | 104 |
| Cc1nc(C(Cc2ccsc2)NC(=O)Cn2ccnc2)sc1C (centres unmarked) [CBK284777] | 102 |
| C1=C(CN2CCn3nc(CNc4cnccn4)cc3C2)CCCC1 [CBK307406] | 86.1 |
| S=C(Nc1ccccc1Cl)Nc1ccccc1-n1cccc1 [CBK018806] | 81.6 |
| O=C(CCN1C(=O)C2C3CCC(C3)C2C1=O)OCC(=O)c1ccc(-c2ccccc2)cc1 (centres unmarked) [CBK265113] | 95.1 |

Same assay, conditions: human, hela cells, % viability, bulk resorufin, single well

| SMILES | viability at 28.5 h, 10 µM [%] |
| --- | --- |
| CCOC(=O)C1(c2ccccc2)CCN(C(=O)c2ccc(OC(F)(F)F)cc2)CC1 [CBK132174] | 96.2 |
| COc1ccc(CCNCc2ccc3c(c2)OCO3)cc1 [CBK074488] | 95.7 |
| COc1cccc2c1OC1(CCN(C(=O)C3CCC3)CC1)OC2 [CBK061168] | 85.4 |
